Laboratory results: ChEMBL document CHEMBL5226392, “Anti-inflammatory Quinoline Alkaloids from the Roots of Waltheria indica” (J Nat Prod, 2023)
The source made the active and inactive calls. No cut-off for these calls is given here.

Columns and labels:
[1] = Cytotoxicity against TNF-alpha induced human 293/NFkB-Luc cells assessed as increase in cell survival at 50 uM preincubated for 15 mins followed by TNF-alpha induction and measured after 6 hrs by MTT assay relative to control; format: toxicity, cell-based; conditions: TNF-alpha induced 293/NFkB-Luc cells, time 375 min, read-out: Activity
[2] = Cytotoxicity against LPS-stimulated mouse RAW264.7 cells assessed as cell survival at 50 uM preincubated for 15 mins followed by LPS stimulation and measured after 20 hrs by CCK-8 assay relative to control; format: toxicity, cell-based; conditions: LPS-stimulated RAW264.7 cells, time 1215 min, read-out: Activity
RAW264.7 [3] = test: Inhibition of NO production in LPS-stimulated mouse RAW264.7 cells at 50 uM preincubated for 15 mins followed by LPS stimulation and measured after 20 hrs by Griess reagent based assay relative to control; format: functional; conditions: RAW264.7, 20.25 h, time 1215 min
[4] = Antiinflammatory activity in human 293/NFkB-Luc cells assessed as inhibition of TNF-alpha induced NFkaapaB activity at 50 uM preincubated for 15 mins followed by TNF-alpha induction and measured after 6 hrs by luminescence based assay relative to control; format: functional; conditions: 6.25 h, time 375 min
RAW264.7 [5] = test: Inhibition of NO production in LPS-stimulated mouse RAW264.7 cells preincubated for 15 mins followed by LPS stimulation and measured after 20 hrs by Griess reagent based assay; format: functional, cell-based
[6] = Antiinflammatory activity in human 293/NFkB-Luc cells assessed as inhibition of TNF-alpha induced NFkaapaB activity preincubated for 15 mins followed by TNF-alpha induction and measured after 6 hrs by luminescence based assay; format: functional, cell-based
[7] = Cytotoxicity against LPS-stimulated mouse RAW264.7 cells assessed as cell growth inhibition preincubated for 15 mins followed by LPS stimulation and measured after 20 hrs by CCK-8 assay; format: toxicity, cell-based; conditions: LPS-stimulated RAW264.7 cells
RAW264.7 [8] = test: Antiinflammatory activity in mouse RAW264.7 cells assessed as inhibition of LPS-induced […] at 10 to 30 uM preincubated for 15 mins followed by LPS stimulation and measured after 4 hrs by qPCR analysis; format: functional, cell-based; conditions: dose 10-30 µM, time 255.0 min
RAW264.7 [9] = test: Antiinflammatory activity in mouse RAW264.7 cells assessed as inhibition of LPS-induced iNOS protein expression at 30 uM preincubated for 15 mins followed by LPS stimulation and measured after 24 hrs by Western blot analysis; format: functional, cell-based; conditions: time 1215.0 min

Row | Structure (SMILES) | IC50 (RAW264.7 [5]) [µM] | IC50 [6] [µM] | viability at 6 h, 50 µM [1] [%] | viability at 20 h, 50 µM [2] [%] | inhibition at 50 µM (RAW264.7 [3]) [%] | inhibition at 50 µM [4] [%] | IC50 at 20 h [7] [µM] | Activity (RAW264.7 [8]) | Activity (RAW264.7 [9])
1 | COc1c(C)[nH]c2c(O)ccc(CCCCCc3ccccc3)c2c1=O |  |  | 83.5 | 59.3 | < 50 | < 50 |  |  | 
2 | CCCCCCCC[C@H]1CC[C@@H](OC)c2[nH]c(C)c(OC)c(=O)c21 | 42.9 |  | 90.3 | 51.4 | 60.3 | < 50 |  |  | 
3 | COc1c(C)[nH]c2c(c1=O)[C@H](CCCCCc1ccccc1)CCC2 | 12.8 | 10.1 | 91.8 | 61 | 99.1 | 81.6 |  |  | 
4 | COc1ccccc1[C@]1(O)c2ccc3[nH]c(C)c(OC)c(=O)c3c2[C@@H]2CC[C@H]1O2 |  |  | 86.7 | 100 | < 50 | < 50 |  |  | 
5 | COc1c(C)[nH]c2ccc3c(c2c1=O)[C@@H]1CCC[C@@]3(c2ccccc2)O1 | 35.7 | 7.1 | 89 | 100 | 58.7 | 78 |  |  | 
6 | COc1c(CO)[nH]c2c(c1=O)[C@@H](CCCCCc1ccccc1)CCC2=O | 31 | 11.9 | 100 | 50.8 | 79.1 | 71.1 |  |  | 
7 | COc1c(C)[nH]c2c(c1=O)[C@@H](CCCCCc1ccccc1)CC[C@H]2OC |  |  | 69.9 | 57.2 | < 50 | < 50 |  |  | 
8 | COc1c(C)[nH]c2c(OC)ccc(C(=O)CCCCc3ccccc3)c2c1=O |  |  | 76.8 | 82.8 | < 50 | < 50 |  |  | 
9 | COc1ccc(OC)c([C@@]2(O)c3ccc4[nH]c(C)c(OC)c(=O)c4c3[C@@H]3CC[C@H]2O3)c1 |  |  | 74.5 | 100 | < 50 | < 50 |  |  | 
10 | CCCCCCC[C@@H](O)c1ccc(OC)c2[nH]c(C)c(OC)c(=O)c12 | 25.8 |  | 72.6 | 84.9 | 86.5 | < 50 |  |  | 
11 | CC[C@@H](C)[C@@H]1NC(=O)[C@@H](NC(=O)[C@H](Cc2ccccc2)N(C)C)[C@@H](c2ccccc2)Oc2ccc(cc2)/C=C\NC1=O |  |  | 86.4 | 94.8 | < 50 | < 50 |  |  | 
12 | Cc1ccc(S(=O)(=O)/C=C/C#N)cc1 |  | 9.7 |  |  |  |  |  |  | 
13 | CCCCCCCCc1ccc(O)c2[nH]c(C)c(OC)c(=O)c12 |  |  | 83.6 | 70.2 | < 50 | < 50 |  |  | 
14 | CNC(=N)NCCC[C@H](N)C(=O)O | 22.7 |  |  |  |  |  |  |  | 
15 | CCCCCCCC(=O)c1ccc(OC)c2[nH]c(C)c(OC)c(=O)c12 |  |  | 86.7 | 69.9 | < 50 | < 50 |  |  | 
16 | COc1c(C)n(OC)c2c(c1=O)[C@@H](CCCCCc1ccccc1)CCC2 | 11 | 12.1 | 89 | < 50 | 99.7 | 88.6 | 32.2 |  | 
17 | COc1c(C)[nH]c2c(c1=O)[C@@H](CCCCCc1ccc(O)cc1)CCC2=O |  |  | 80.5 | 89.3 | < 50 | < 50 |  |  | 
18 | COc1c(C)[nH]c2c(c1=O)[C@@H](CCCCC(=O)c1ccccc1)CCC2=O |  |  | 82.2 | 74.5 | < 50 | < 50 |  |  | 

Continued, in another order:

Row | IC50 (RAW264.7 [5]) [µM] | IC50 [6] [µM] | Structure (SMILES) | viability at 6 h, 50 µM [1] [%] | viability at 20 h, 50 µM [2] [%] | inhibition at 50 µM (RAW264.7 [3]) [%] | inhibition at 50 µM [4] [%] | IC50 at 20 h [7] [µM] | Activity (RAW264.7 [8]) | Activity (RAW264.7 [9])
19 | 40.7 |  | COc1c(C)[nH]c2c(c1=O)[C@@H](CCCCCc1ccccc1)CCC2=O | 88.4 | 67.5 | 59.7 | < 50 |  |  | 
20 | 11.4 | 10.2 | COc1c(C)[nH]c2cccc(CCCCCc3ccccc3)c2c1=O | 76.7 | < 50 | 97.9 | 77.5 | 33.3 |  | 
21 | 11.7 |  | COc1c(C)[nH]c2c(c1=O)[C@@H](CCCCCc1ccccc1)CCC2 | 77.2 | 84.3 | 97.2 | < 50 |  | Active | Active
22 | 25.8 |  | CCCCCCC[C@H](O)c1ccc(OC)c2[nH]c(C)c(OC)c(=O)c12 | 75.6 | 64.7 | 91.7 | < 50 |  |  | 
23 |  | 8.9 | COc1c(C)n(OC)c2c(c1=O)[C@@H](CCCCC(=O)c1ccccc1)CCC2 | 82.7 | 73.2 | < 50 | 97.9 |  |  | 
24 | 20.8 |  | CCCCCCCC[C@H]1CCCc2[nH]c(C)c(OC)c(=O)c21 | 90.8 | 67.6 | 99.9 | < 50 |  |  | 
25 | 18.8 | 10.3 | COc1c(C)n(OC)c2c(c1=O)[C@@H](CCCCCc1ccc(O)cc1)CCC2 | 85.3 | < 50 | 94.5 | 85.4 | 25.9 |  | 
26 | 16.1 |  | CCCCCCCC[C@H]1CCC(=O)c2[nH]c(C)c(OC)c(=O)c21 | 85.8 | 63.5 | 97.4 | < 50 |  |  | Active
27 | 35.6 |  | COc1c(C)[nH]c2c(OC)ccc(CCCCCCC(C)=O)c2c1=O | 75.8 | 86.5 | 63.8 | < 50 |  |  | 
28 | 32 |  | O=C1N/C=C\c2ccc(cc2)O[C@@H](c2ccccc2)[C@H](NC(=O)[C@@H]2CCCN2C(=O)/C=C/c2ccccc2)C(=O)N[C@H]1Cc1ccccc1 | 76.6 | 100 | 63.7 | < 50 |  |  | 
29 | 25.4 |  | CCCCCCCC[C@H]1CCC(=O)c2[nH]c(CO)c(OC)c(=O)c21 | 93.1 | 50.9 | 89.9 | < 50 |  |  | 
30 | 38.8 | 7.2 | COc1ccccc1[C@@H]1c2ccc3[nH]c(C)c(OC)c(=O)c3c2[C@@H]2CC[C@H]1O2 | 79.6 | 100 | 56.3 | 84.5 |  |  | 
31 | 43 |  | CC[C@H](C)[C@@H]1NC(=O)[C@H](NC(=O)/C=C/c2ccccc2)[C@H](c2ccccc2)Oc2ccc(cc2)/C=C\NC1=O | 100 | 100 | 58.5 | < 50 |  |  | 
